From the NIST ThermoML archive (doi:10.1016/j.jct.2012.08.019)
Numbers after ± are expanded uncertainties.

Columns and labels:
[1] = 323.2 K, Liquid, Vibrating tube method
[2] = xn = mol fraction of the nth substance listed; settings: Liquid; for viscosity: Moving piston method; for mass density: Vibrating tube method

CCCCCCCCCC [decane]
[1]
Settings	mass density [kg/m3]
100 kPa	707 ± 0.3
1000 kPa	707.9 ± 0.4
2000 kPa	708.8 ± 0.4
3000 kPa	709.7 ± 0.4
4000 kPa	710.6 ± 0.4
5000 kPa	711.5 ± 0.4
6000 kPa	712.4 ± 0.4
7000 kPa	713.3 ± 0.4
8000 kPa	714.1 ± 0.4
9000 kPa	715 ± 0.4
10000 kPa	715.9 ± 0.4

CCCCCCCCCCCCCC [tetradecane] + O=C=O
[2]
Settings	mass density, 323.3 K [kg/m3]	viscosity, 323.2 K [mPa·s]
980 kPa, x2 = 0.097	744 ± 2	1.18 ± 0.1
2060 kPa, x2 = 0.196	748 ± 2	1.08 ± 0.1
3000 kPa, x2 = 0.279	751 ± 2	0.96 ± 0.1
4030 kPa, x2 = 0.358	755 ± 2	0.79 ± 0.1
4960 kPa, x2 = 0.429	758 ± 2	0.67 ± 0.1
6000 kPa, x2 = 0.496	762 ± 2	0.56 ± 0.1

CCCCCCCCCC [decane] + O=C=O
[2]
Settings	mass density, 323.3 K [kg/m3]	viscosity, 323.2 K [mPa·s]
1020 kPa, x2 = 0.094	711 ± 2	0.56 ± 0.1
2080 kPa, x2 = 0.19	716 ± 2	0.46 ± 0.1
2970 kPa, x2 = 0.263	720 ± 2	0.42 ± 0.1
3940 kPa, x2 = 0.353	724 ± 2	0.38 ± 0.1
4910 kPa, x2 = 0.429	729 ± 2	0.33 ± 0.1
5960 kPa, x2 = 0.513	735 ± 2	0.28 ± 0.1

CCCCCCCCCC [decane] + CCCCCCCCCCCCCC
[2], 323.2 K, x1 = 1
Settings	mass density [kg/m3]
100 kPa	707 ± 0.3
1000 kPa	707.9 ± 0.4
2000 kPa	708.8 ± 0.4
3000 kPa	709.7 ± 0.4
4000 kPa	710.6 ± 0.4
5000 kPa	711.5 ± 0.4
6000 kPa	712.4 ± 0.4
7000 kPa	713.3 ± 0.4
8000 kPa	714.1 ± 0.4
9000 kPa	715 ± 0.4
10000 kPa	715.9 ± 0.4

CCCCCCCCCCCCCC [tetradecane]
[1]
Settings	mass density [kg/m3]
100 kPa	741.3 ± 0.4
1000 kPa	742.1 ± 0.4
2000 kPa	742.9 ± 0.4
3000 kPa	743.7 ± 0.4
4000 kPa	744.4 ± 0.4
5000 kPa	745.2 ± 0.4
6000 kPa	746 ± 0.4
7000 kPa	746.7 ± 0.4
8000 kPa	747.5 ± 0.4
9000 kPa	748.2 ± 0.4
10000 kPa	749 ± 0.4

CCCCCCCCCCCCCC [tetradecane] + CCCCCCCCCC
mass density [kg/m3], [2], 323.2 K
Settings	x2 = 0	x2 = 0.25	x2 = 0.5	x2 = 0.75
100 kPa	741.3 ± 0.4	734.3 ± 0.4	726.5 ± 0.4	717.2 ± 0.4
1000 kPa	742.1 ± 0.4	735.1 ± 0.4	727.4 ± 0.4	718.1 ± 0.4
2000 kPa	742.9 ± 0.4	735.9 ± 0.4	728.2 ± 0.4	719 ± 0.4
3000 kPa	743.7 ± 0.4	736.7 ± 0.4	729.1 ± 0.4	719.8 ± 0.4
4000 kPa	744.4 ± 0.4	737.5 ± 0.4	729.8 ± 0.4	720.7 ± 0.4
5000 kPa	745.2 ± 0.4	738.3 ± 0.4	730.7 ± 0.4	721.6 ± 0.4
6000 kPa	746 ± 0.4	739.1 ± 0.4	731.5 ± 0.4	722.5 ± 0.4
7000 kPa	746.7 ± 0.4	739.9 ± 0.4	732.4 ± 0.4	723.2 ± 0.4
8000 kPa	747.5 ± 0.4	740.7 ± 0.4	733.2 ± 0.4	724 ± 0.4
9000 kPa	748.2 ± 0.4	741.5 ± 0.4	734 ± 0.4	724.9 ± 0.4
10000 kPa	749 ± 0.4	742.2 ± 0.4	734.8 ± 0.4	725.8 ± 0.4
